Results: ChEMBL document CHEMBL3091392, “Chromenylchalcones with inhibitory effects on monoamine oxidase B” (Bioorg Med Chem, 2013)

Tests used:
[1] = molecular target: T1, Amine oxidase [flavin-containing] B (Homo sapiens, UniProt P27338); test: Inhibition of MAO-B (unknown origin)
T1 sequence (P27338 whole entry): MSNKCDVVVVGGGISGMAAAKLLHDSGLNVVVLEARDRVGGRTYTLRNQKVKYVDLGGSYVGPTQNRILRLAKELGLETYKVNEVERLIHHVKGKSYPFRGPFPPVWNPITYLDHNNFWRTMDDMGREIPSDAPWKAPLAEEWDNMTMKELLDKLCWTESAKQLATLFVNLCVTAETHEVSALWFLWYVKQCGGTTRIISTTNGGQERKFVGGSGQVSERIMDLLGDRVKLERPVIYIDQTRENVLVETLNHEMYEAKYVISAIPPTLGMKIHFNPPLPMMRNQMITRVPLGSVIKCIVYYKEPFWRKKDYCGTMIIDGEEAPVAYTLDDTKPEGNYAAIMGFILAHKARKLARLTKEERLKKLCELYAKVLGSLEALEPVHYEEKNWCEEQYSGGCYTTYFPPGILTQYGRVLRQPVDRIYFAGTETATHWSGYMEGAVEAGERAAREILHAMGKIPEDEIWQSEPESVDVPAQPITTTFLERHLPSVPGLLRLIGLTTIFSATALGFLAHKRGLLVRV

[2] = molecular target: T1, Amine oxidase [flavin-containing] B; test: Inhibition of MAO-B (unknown origin) using p-tyramine substrate by HPLC method
[3] = molecular target: T1, Amine oxidase [flavin-containing] B; test: Inhibition of human recombinant MAO-B expressed in insect cells by Amplex Red assay; type: cell-based
[4] = molecular target: T1, Amine oxidase [flavin-containing] B; test: Inhibition of human recombinant MAO-B expressed in insect cells at 10 uM by Amplex Red assay; details: read-out: INH

Compound: O=c1c(Cc2ccc(Cl)cc2)coc2cc(Cl)cc(Cl)c12
- IC50 [1]: 0.437 µM

Compound: COc1cc(/C=C/C(=O)C2=Cc3cc(OC)ccc3OC2)cc(OC)c1
- IC50 [2]: 18.3 µM

Compound: COc1cccc(C(=O)/C=C/C2=Cc3cc(Br)ccc3OC2)c1
- IC50 [2]: 35.9 µM

Compound: COc1ccccc1C(=O)/C=C/C1=Cc2cc(Br)ccc2OC1
- IC50 [2]: 42.8 µM

Compound: COc1ccc2c(c1)C=C(/C=C/C(=O)c1ccccc1OC)CO2
- IC50 [3]: 0.32 µM
- IC50 [2]: 13.7 µM
- inhibition at 10 µM [4]: 91.6%

Compound: COc1cc(OC)cc(C(=O)/C=C/C2=Cc3cc(Br)ccc3OC2)c1
- IC50 [2]: 16.7 µM
